Source: US12590091B2, “1H-pyrrolo[3,2-C]pyridine and 1H-pyrrolo[2,3-C]pyridine derivatives as TLR9 inhibitors for the treatment of fibrosis” (BRISTOL-MYERS SQUIBB COMPANY, priority 2020, dated 2026)

Molecular target: T1, human TLR8 (Homo sapiens, UniProt Q9NR97)
T1 construct: host or cells: HEK-Blue cells
T1 sequence (Q9NR97 27-1041): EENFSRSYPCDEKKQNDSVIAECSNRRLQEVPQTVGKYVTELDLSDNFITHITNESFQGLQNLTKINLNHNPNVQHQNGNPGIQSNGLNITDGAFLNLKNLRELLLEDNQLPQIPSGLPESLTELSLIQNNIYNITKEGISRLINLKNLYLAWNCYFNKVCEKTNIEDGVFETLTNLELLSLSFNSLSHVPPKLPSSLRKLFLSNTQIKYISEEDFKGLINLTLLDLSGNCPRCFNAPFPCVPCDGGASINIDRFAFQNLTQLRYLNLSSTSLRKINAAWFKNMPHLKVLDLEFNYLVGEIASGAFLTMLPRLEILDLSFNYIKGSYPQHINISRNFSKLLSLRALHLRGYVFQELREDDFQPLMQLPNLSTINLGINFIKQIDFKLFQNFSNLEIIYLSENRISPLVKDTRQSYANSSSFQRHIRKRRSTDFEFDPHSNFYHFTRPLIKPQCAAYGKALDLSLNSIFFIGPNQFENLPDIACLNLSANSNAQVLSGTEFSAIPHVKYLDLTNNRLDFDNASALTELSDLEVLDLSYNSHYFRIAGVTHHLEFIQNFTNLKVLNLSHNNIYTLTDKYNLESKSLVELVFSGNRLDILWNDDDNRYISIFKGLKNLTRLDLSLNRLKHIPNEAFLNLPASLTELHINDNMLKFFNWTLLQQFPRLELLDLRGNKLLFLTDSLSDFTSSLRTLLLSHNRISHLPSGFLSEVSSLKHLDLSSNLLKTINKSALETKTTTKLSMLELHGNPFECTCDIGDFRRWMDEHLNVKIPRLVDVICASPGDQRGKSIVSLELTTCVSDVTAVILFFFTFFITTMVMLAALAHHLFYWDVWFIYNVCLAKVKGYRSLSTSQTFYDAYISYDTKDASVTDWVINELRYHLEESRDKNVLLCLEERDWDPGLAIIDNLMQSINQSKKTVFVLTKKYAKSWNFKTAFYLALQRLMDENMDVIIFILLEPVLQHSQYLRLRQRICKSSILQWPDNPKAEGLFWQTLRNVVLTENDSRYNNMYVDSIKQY
Experiment: TLR8 inhibition reporter assay (HEK-Blue cells, SEAP reporter)
Type: cell-based
Settings: HEK-Blue cells overexpressing human TLR8, stimulated with R848 15.9 μM, 22 hour incubation
Experimental: TLR7/8/9 Inhibition Reporter Assays
HEK-Blue™-cells (Invivogen) overexpressing human TLR7, TLR8 or TLR9 receptors were used for screening inhibitors of these receptors using an inducible SEAP (secreted embryonic alkaline phosphatase) reporter gene under the control of the IFN-β minimal promoter fused to five NF-κB and AP-1-binding sites. Briefly, cells are seeded into Greiner 384 well plates (15000 cells per well for TLR7, 20,000 for TLR8 and 25,000 for TLR9) and then treated with test compounds in DMSO to yield a final dose response concentration range of 0.05 nM-50 μM. After a 30 minute compound pre-treatment at room temperature, the cells are then stimulated with a TLR7 ligand (gardiquimod at a final concentration of 7.5 μM), TLR8 ligand (R848 at a final concentration of 15.9 μM) or TLR9 ligand (ODN2006 at a final concentration of 5 nM) to activate NF-κB and AP-1 which induce the production of SEAP. After a 22 hour incubation at 37° C., 5% CO2, SEAP levels are determined with the addition of HEK-Blue™ Detection reagent (Invivogen), a cell culture medium that allows for detection of SEAP, according to manufacturer's specifications. The percent inhibition is determined as the % reduction in the HEK-Blue signal present in wells treated with agonist plus DMSO alone compared to wells treated with a known inhibitor.

| Compound | IC50 |
| --- | --- |
| COCCN1CCN(c2ccc(-c3cc4c(cc(-c5ccc(S(=O)(=O)C6CC6)cc5)n4C)c(C)n3)cc2)CC1 [Example 48, 2-(4-(cyclopropylsulfonyl)phenyl)-6-(4-(4-(2-methoxyethyl)piperazin-1-yl)phenyl)-1,4-dimethyl-1H-pyrrolo[3,2-c]pyridine] | > 25 µM |
| COc1ccc(-c2c(C)[nH]c3cnc(C4CCN(C(=O)CN5CCCCC5)CC4)cc23)cc1OC [Example 16, 1-(4-(3-(3,4-dimethoxyphenyl)-2-methyl-1H-pyrrolo[2,3-c]pyridin-5-yl)piperidin-1-yl)-2-(piperidin-1-yl)ethan-1-one] | 47.9 µM |
| Cc1nc(-c2ccc(CN3CCN(CCC(C)(C)O)CC3)cc2)cc2c1cc(-c1ccc(S(C)(=O)=O)cc1)n2C [Example 60, 4-(4-(4-(1,4-dimethyl-2-(4-(methylsulfonyl)phenyl)-1H-pyrrolo[3,2-c]pyridin-6-yl)benzyl)piperazin-1-yl)-2-methylbutan-2-ol] | 4.6 µM |
| Cc1nc(-c2ccc(N3CCN4CCCC4C3)c(F)c2F)cc2c1cc(-c1ccc(S(C)(=O)=O)cc1)n2C (centres unmarked) [Example 99, 6-(2,3-difluoro-4-(hexahydropyrrolo[1,2-a]pyrazin-2(1H)-yl)phenyl)-1,4-dimethyl-2-(4-(methylsulfonyl)phenyl)-1H-pyrrolo[3,2-c]pyridine] | 6 µM |
| CC(C)(O)CCN1CCN(Cc2ccc(-c3cc4c(cn3)cc(-c3ccc(S(C)(=O)=O)cc3)n4C3CC3)cc2)CC1 [Example 129, 4-(4-(4-(1-cyclopropyl-2-(4-(methylsulfonyl)phenyl)-1H-pyrrolo[3,2-c]pyridin-6-yl)benzyl)piperazin-1-yl)-2-methylbutan-2-ol] | 5.6 µM |
| COc1ccc(-c2c(C)[nH]c3cnc(C4CCN(C(=O)CCN5CCCC5)CC4)cc23)cc1OC [Example 23, 1-(4-(3-(3,4-dimethoxyphenyl)-2-methyl-1H-pyrrolo[2,3-c]pyridin-5-yl)piperidin-1-yl)-3-(pyrrolidin-1-yl)propan-1-one] | > 50 µM |
| Cc1nc(-c2ccc(CN3CCN(CCCO)CC3)cc2)cc2c1cc(-c1ccc(S(C)(=O)=O)cc1)n2C [Example 58, 3-(4-(4-(1,4-dimethyl-2-(4-(methylsulfonyl)phenyl)-1H-pyrrolo[3,2-c]pyridin-6-yl)benzyl)piperazin-1-yl)propan-1-ol] | 17.8 µM |
| COc1ccc(-c2c(C)[nH]c3cnc(C4CCN(C5CCN(C(=O)c6ccccc6)CC5)CC4)cc23)cc1OC [Example 14, (4-(3-(3,4-dimethoxyphenyl)-2-methyl-1H-pyrrolo[2,3-c]pyridin-5-yl)-[1,4′-bipiperidin]-1′-yl) (phenyl)methanone] | > 50 µM |
| Cc1nc(-c2ccc([C@]3(O)CCN(C(C)C)C(C)(C)C3)c(F)c2)cc2c1cc(-c1ccc(S(C)(=O)=O)cc1)n2C [Example 106, (S)-4-(4-(1,4-dimethyl-2-(4-(methylsulfonyl)phenyl)-1H-pyrrolo[3,2-c]pyridin-6-yl)-2-fluorophenyl)-1-isopropyl-2,2-dimethylpiperidin-4-ol] | 0.7 µM |
| CC(C)(O)CN1C2CCC1CN(Cc1ccc(-c3cc4c(cn3)cc(-c3ccc(S(C)(=O)=O)cc3)n4C3CC3)cc1)C2 [Example 121, 1-[3-[[4-[1-cyclopropyl-2-(4-methylsulfonylphenyl)pyrrolo[3,2-c]pyridin-6-yl]phenyl]methyl]-3,8-diazabicyclo[3.2.1]octan-8-yl]-2-methyl-propan-2-ol] | > 50 µM |
| COc1ccc(-c2cc3cnc(-c4ccc(N5CCN(C6CCC6)CC5)cc4)cc3n2C)cc1OC [Example 10, 6-(4-(4-Cyclobutylpiperazin-1-yl)phenyl)-2-(3,4-dimethoxyphenyl)-1-methyl-1H-pyrrolo[3,2-c]pyridine] | 5.2 µM |
| COCCN1CCN(c2ccc(-c3cc4c(cc(-c5ccc(S(C)(=O)=O)cc5)n4C)c(C)n3)cc2)CC1 [Example 38, 6-(4-(4-(2-methoxyethyl)piperazin-1-yl)phenyl)-1,4-dimethyl-2-(4-(methylsulfonyl)phenyl)-1H-pyrrolo[3,2-c]pyridine] | 11.8 µM |
| COc1ccc(-c2c(C)n(C)c3cnc(-c4ccc(N5CCN(CCC(C)(C)O)CC5)cc4)cc23)cc1OC [Example 33, 4-(4-(4-(3-(3,4-dimethoxyphenyl)-1,2-dimethyl-1H-pyrrolo[2,3-c]pyridin-5-yl)phenyl)piperazin-1-yl)-2-methylbutan-2-ol] | > 50 µM |
| Cc1nc(-c2ccc(N3CCN(CCCO)CC3)cc2)cc2c1cc(-c1ccc(S(C)(=O)=O)cc1)n2C [Example 36, 3-(4-(4-(1,4-dimethyl-2-(4-(methylsulfonyl)phenyl)-1H-pyrrolo[3,2-c]pyridin-6-yl)phenyl)piperazin-1-yl)propan-1-ol] | > 25 µM |
| COc1ccc(-c2cc3cnc(-c4ccc(N5CCN(C)CC5)cc4)cc3n2C)cc1OC [Example 27, 2-(3,4-dimethoxyphenyl)-1-methyl-6-(4-(4-methylpiperazin-1-yl)phenyl)-1H-pyrrolo[3,2-c]pyridine] | 1.5 µM |
| COc1ccc(-c2cc3cnc(-c4ccc(N5CCN(C(C)C)CC5)cc4)cc3n2C)cc1OC [Example 24, 2-(3,4-dimethoxyphenyl)-6-(4-(4-isopropylpiperazin-1-yl)phenyl)-1-methyl-1H-pyrrolo[3,2-c]pyridine] | 3.8 µM |
| Cc1nc(-c2cc(F)c(N3CC4CCC(C3)N4CCCO)cc2F)cc2c1cc(-c1ccc(S(C)(=O)=O)cc1)n2C [Example 79, 3-(3-(4-(1,4-dimethyl-2-(4-(methylsulfonyl)phenyl)-1H-pyrrolo[3,2-c]pyridin-6-yl)-2,5-difluorophenyl)-3,8-diazabicyclo[3.2.1]octan-8-yl) propan-1-ol] | 9.5 µM |
| Cc1nc(-c2ccc(N3CCN(CCCO)CC3)cc2)cc2c1cc(-c1ccc(S(=O)(=O)C3CC3)cc1)n2C [Example 47, 3-(4-(4-(2-(4-(cyclopropylsulfonyl)phenyl)-1,4-dimethyl-1H-pyrrolo[3,2-c]pyridin-6-yl)phenyl)piperazin-1-yl)propan-1-ol] | > 25 µM |
| Cc1nc(-c2ccc(CN3CCN(CC(C)(C)O)CC3)cc2)cc2c1cc(-c1ccc(S(C)(=O)=O)cc1)n2C(F)F [Example 124, 1-(4-(4-(1-(difluoromethyl)-4-methyl-2-(4-(methylsulfonyl)phenyl)-1H-pyrrolo[3,2-c]pyridin-6-yl)benzyl)piperazin-1-yl)-2-methylpropan-2-ol] | > 50 µM |
| Cc1nc(-c2ccc(N3CCN(C4CCOC4)CC3)c(F)c2)cc2c1cc(-c1ccc(S(C)(=O)=O)cc1)n2C (centres unmarked) [Example 70, 6-(3-fluoro-4-(4-(tetrahydrofuran-3-yl)piperazin-1-yl)phenyl)-1,4-dimethyl-2-(4-(methylsulfonyl)phenyl)-1H-pyrrolo[3,2-c]pyridine] | > 25 µM |
| Cc1nc(-c2cc(F)c(N3CCNCC3)cc2F)cc2c1cc(-c1ccc(S(C)(=O)=O)cc1)n2C [Example 43, 6-(2,5-Difluoro-4-(piperazin-1-yl)phenyl)-1,4-dimethyl-2-(4-(methylsulfonyl)phenyl)-1H-pyrrolo[3,2-c]pyridine] | 2.7 µM |
| Cc1nc(-c2ccc(N3CCN(CCCO)CC3)c(F)c2F)cc2c1cc(-c1ccc(S(C)(=O)=O)cc1)n2C [Example 55, 3-(4-(4-(1,4-dimethyl-2-(4-(methylsulfonyl)phenyl)-1H-pyrrolo[3,2-c]pyridin-6-yl)-2,3-difluorophenyl)piperazin-1-yl)propan-1-ol] | > 50 µM |
| COc1ccc(-c2c(C)[nH]c3cnc(C4CCN(C(=O)CN(C)C)CC4)cc23)cc1OC [Example 22, 1-(4-(3-(3,4-dimethoxyphenyl)-2-methyl-1H-pyrrolo[2,3-c]pyridin-5-yl)piperidin-1-yl)-2-(dimethylamino)ethan-1-one] | > 50 µM |
